Measured values from patent US4427587A, “Total synthesis of antitumor antibiotics BBM-2040A and BBM-2040B” (Bristol-Myers Company, priority 1982, dated 1984).
≈ marks a conversion by molar mass, not a printed value. Read-outs that look alike come from different tables or passages of the source.

Assays:
[1] = test system: lymphatic leukemia P388; assay: antitumor activity against P388 leukemia in mice, second experiment (Table 7); assay type: in vivo, male BDF1 mice; settings: QD 1→9; for Effect MST % T/C: ≥ 125 significant; for antitumor activity in second P388 experiment (in words): i.p., epimer: 1 mg/kg/day, the highest dose tested
Procedure: In this experiment lymphatic leukemia P388 was implanted intraperitoneally into male BDF1 mice at an inoculum size of 10^6 cells per mouse. Test compounds were dissolved in 0.9% saline containing 10% dimethylsulfoxide. Graded doses of test compounds were administered to mice intraperitoneally 24 hours after the tumor implantation, and the treatment was continued once daily for 9 days.
Tumor inoculum: 10^6 ascites cells implanted i.p.
Treatment: QD 1→9, i.p.
Evaluation: MST = median survival time
Effect: % T/C = (MST treated/MST control) × 100
Criteria: % T/C ≥ 125 considered as significant antitumor activity

[2] = test system: Bacillus subtilis PCI 219; assay: MIC, serial two-fold agar dilution method; assay type: cell-based; settings: PCI219
Procedure: (§1) The minimum inhibitory concentration (MIC) of BBM-2040 was determined for a variety of gram-positive, gram-negative and acid-fast bacteria by the serial two-fold agar dilution method. Nutrient agar medium was used for gram-positive and gram-negative organisms and No. 1001 medium (3% glycerol, 0.3% sodium L-glutamate, 0.2% peptone, 0.31% Na2 HPO4, 0.1% KH2 PO4, 0.005% ammonium citrate, 0.001% MgSO4 and 1.5% agar) for acid-fast organisms.

[3] = test system: Escherichia coli Juhl; assay: MIC, serial two-fold agar dilution method; assay type: cell-based
Procedure: as §1

[4] = test system: Escherichia coli NIHJ; assay: MIC, serial two-fold agar dilution method; assay type: cell-based
Procedure: as §1

[5] = test system: Klebsiella pneumoniae D-11; assay: MIC, serial two-fold agar dilution method; assay type: cell-based; settings: D11
Procedure: as §1

[6] = test system: Micrococcus flavus D12; assay: MIC, serial two-fold agar dilution method; assay type: cell-based
Procedure: as §1

[7] = test system: Mycobacterium phlei D88; assay: MIC, serial two-fold agar dilution method; assay type: cell-based; settings: Mycolicibacterium phlei
Procedure: as §1

[8] = test system: Mycobacterium smegmatis 607; assay: MIC, serial two-fold agar dilution method; assay type: cell-based; settings: Mycolicibacterium smegmatis
Procedure: as §1

[9] = test system: Proteus vulgaris A9436; assay: MIC, serial two-fold agar dilution method; assay type: cell-based
Procedure: as §1

[10] = test system: Pseudomonas aeruginosa A9930; assay: MIC, serial two-fold agar dilution method; assay type: cell-based
Procedure: as §1

[11] = test system: Staphylococcus aureus FDA 209P; assay: MIC, serial two-fold agar dilution method; assay type: cell-based; settings: FDA209P
Procedure: as §1

[12] = test system: Staphylococcus aureus Smith; assay: MIC, serial two-fold agar dilution method; assay type: cell-based
Procedure: as §1

[13] = test system: Streptococcus pyogenes A20201; assay: MIC, serial two-fold agar dilution method; assay type: cell-based
Procedure: as §1

[14] = test system: Streptococcus pyogenes PCI 1001; assay: MIC, serial two-fold agar dilution method; assay type: cell-based; settings: PCI1001
Procedure: as §1

[15] = test system: gram-positive, gram-negative and acid-fast bacteria; assay: antibacterial activity / spectrum; assay type: cell-based; settings: Streptococcus pyogenes, Micrococcus luteus, Micrococcus flavus and Mycobacterium strains
Procedure: as §1

[16] = test system: lymphocytic leukemia P388; assay: antitumor activity against lymphocytic leukemia P388 in mice (Table 6); assay type: in vivo, mice (BDF1 strain); settings: qd 1→9; for antitumor activity in P388 experiment (comparison): ip
Procedure: The antitumor activity of BBM-2040A and B was determined in mice (BDF1 strain) against lymphocytic leukemia P388. Each mouse was inoculated intraperitoneally with 10^6 cells of tumor. Graded doses of test compounds were administered to mice intraperitoneally 24 hours after the tumor implantation. The treatments were given once daily for 9 days (qd 1→9 schedule). Neothramycin was comparatively tested as a reference compound.
*ratio of median survival time of test and control animals
**circle indicates significant antitumor effect.

[17] = solubility
[18] = intraperitoneal; reported value; cited from earlier work
[19] = Bacillus subtilis PCI 219, read-out: MIC
[20] = Escherichia coli Juhl, read-out: MIC
[21] = Escherichia coli NIHJ, read-out: MIC
[22] = Klebsiella pneumoniae D-11, read-out: MIC
[23] = Mycobacterium phlei D88, No. 1001 medium, read-out: MIC
[24] = Mycobacterium smegmatis 607, No. 1001 medium, read-out: MIC
[25] = Staphylococcus aureus FDA 209P, read-out: MIC
[26] = Staphylococcus aureus Smith, read-out: MIC
[27] = Streptococcus pyogenes PCI 1001, read-out: MIC
[28] = benzene, chloroform and n-hexane
[29] = ethyl acetate, acetone and water
[30] = methanol ethanol, n-butanol and pyridine

COc1cc2c(cc1O)N[C@H](OC)[C@@H]1C[C@@H](O)CN1C2=O [2β-Hydroxy epimer of BBM-2040 A]
Average weight change ([1]; 0.03 mg/kg/day i.p.): +1.0 g
MST ([1]; 0.03 mg/kg/day i.p.): 10.5 days
Survivors Day 5 ([1]; 0.03 mg/kg/day i.p.): 6/6
Survivors Day 22 ([1]; 0.03 mg/kg/day i.p.): 0/6
Effect MST % T/C ([1]; 0.03 mg/kg/day i.p.): 88%
Average weight change ([1]; 0.1 mg/kg/day i.p.): +1.3 g
MST ([1]; 0.1 mg/kg/day i.p.): 11.0 days
Survivors Day 5 ([1]; 0.1 mg/kg/day i.p.): 6/6
Survivors Day 22 ([1]; 0.1 mg/kg/day i.p.): 0/6
Effect MST % T/C ([1]; 0.1 mg/kg/day i.p.): 92%
Average weight change ([1]; 0.3 mg/kg/day i.p.): +1.8 g
MST ([1]; 0.3 mg/kg/day i.p.): 11.0 days
Survivors Day 5 ([1]; 0.3 mg/kg/day i.p.): 6/6
Survivors Day 22 ([1]; 0.3 mg/kg/day i.p.): 0/6
Effect MST % T/C ([1]; 0.3 mg/kg/day i.p.): 92%
Average weight change ([1]; 1 mg/kg/day i.p.): +1.0 g
MST ([1]; 1 mg/kg/day i.p.): 12.0 days
Survivors Day 5 ([1]; 1 mg/kg/day i.p.): 6/6
Survivors Day 22 ([1]; 1 mg/kg/day i.p.): 0/6
Effect MST % T/C ([1]; 1 mg/kg/day i.p.): 100%
antitumor activity in second P388 experiment (in words) [1]: inactive

COc1cc2c(cc1O)N[C@H](OC)[C@@H]1C[C@H](O)CN1C2=O [BBM-2040A, 2(S),11(R),11a(S)-1,2,3,10,11,11a-Hexahydro-2,8-dihydroxy-7,11-dimethoxy-5H-pyrrolo-[2,1-c][1,4]benzodiazepin-5-one]
MIC [2, 19]: > 100 mg/L
MIC [3, 20]: > 100 mg/L
MIC [4, 21]: > 100 mg/L
MIC [5, 22]: > 100 mg/L
MIC ([6]; read-out: MIC): 50 mg/L (≈ 170 µM)
MIC [7, 23]: 100 mg/L (≈ 340 µM)
MIC [8, 24]: 100 mg/L (≈ 340 µM)
MIC ([9]; read-out: MIC): > 100 mg/L
MIC ([10]; read-out: MIC): > 100 mg/L
MIC [11, 25]: > 100 mg/L
MIC [12, 26]: > 100 mg/L
MIC ([13]; read-out: MIC): 50 mg/L (≈ 170 µM)
MIC [14, 27]: 50 mg/L (≈ 170 µM)
antibacterial activity [15]: weak antibacterial activity
T/C (%) in MST ([16]; 0.1 mg/kg/day ip): 96%
T/C (%) in MST ([16]; 0.3 mg/kg/day ip): 104%
antitumor activity in P388 experiment (comparison) [16]: similarly active
Average weight change ([1]; 0.1 mg/kg/day i.p.): +1.5 g
MST ([1]; 0.1 mg/kg/day i.p.): 12.0 days
Effect MST % T/C ([1]; 0.1 mg/kg/day i.p.): 100%
Average weight change ([1]; 0.3 mg/kg/day i.p.): +1.3 g
MST ([1]; 0.3 mg/kg/day i.p.): 14.0 days
Effect MST % T/C ([1]; 0.3 mg/kg/day i.p.): 117%
MST ([1]; 1 mg/kg/day i.p.): 16.0 days
Effect MST % T/C ([1]; 1 mg/kg/day i.p.): 133%
Average weight change ([1]; 3 mg/kg/day i.p.): +0.5 g
MST ([1]; 3 mg/kg/day i.p.): 17.0 days
Survivors Day 5 ([1]; 3 mg/kg/day i.p.): 6/6
Survivors Day 22 ([1]; 3 mg/kg/day i.p.): 0/6
Effect MST % T/C ([1]; 3 mg/kg/day i.p.): 142%
Average weight change ([1]; 10 mg/kg/day i.p.): -2.2 g
MST ([1]; 10 mg/kg/day i.p.): 19.5 days
Survivors Day 5 ([1]; 10 mg/kg/day i.p.): 6/6
Survivors Day 22 ([1]; 10 mg/kg/day i.p.): 1/6
Effect MST % T/C ([1]; 10 mg/kg/day i.p.): 163%
antitumor activity in second P388 experiment (in words) [1]: similarly active
solubility [17, 28]: practically insoluble
solubility [17, 29]: slightly soluble
solubility [17, 30]: readily soluble

COc1cc2c(cc1O)N=C[C@@H]1C[C@H](O)CN1C2=O [BBM-2040B]
MIC [2, 19]: > 100 mg/L
MIC [3, 20]: > 100 mg/L
MIC [4, 21]: > 100 mg/L
MIC [5, 22]: > 100 mg/L
MIC ([6]; read-out: MIC): 50 mg/L (≈ 191 µM)
MIC [7, 23]: 100 mg/L (≈ 381 µM)
MIC [8, 24]: 100 mg/L (≈ 381 µM)
MIC ([9]; read-out: MIC): > 100 mg/L
MIC ([10]; read-out: MIC): > 100 mg/L
MIC [11, 25]: > 100 mg/L
MIC [12, 26]: > 100 mg/L
MIC ([13]; read-out: MIC): 50 mg/L (≈ 191 µM)
MIC [14, 27]: 100 mg/L (≈ 381 µM)
antibacterial activity [15]: weak antibacterial activity
T/C (%) in MST ([16]; 0.1 mg/kg/day ip): 104%
T/C (%) in MST ([16]; 0.3 mg/kg/day ip): 96%
T/C (%) in MST ([16]; 1 mg/kg/day ip): 112%
antitumor activity in P388 experiment (comparison) [16]: somewhat less active than BBM-2040A
solubility [17, 28]: practically insoluble
solubility [17, 29]: slightly soluble
solubility [17, 30]: readily soluble

COc1cc2c(cc1O)N=CC1CCC(O)N1C2=O (stereo not drawn) [Neothramycin]
MIC ([2]; Bacillus subtilis): 50 mg/L (≈ 191 µM)
MIC ([3]; Escherichia coli): > 100 mg/L
MIC ([4]; Escherichia coli): 50 mg/L (≈ 191 µM)
MIC ([5]; Klebsiella pneumoniae): 100 mg/L (≈ 381 µM)
MIC [6]: 100 mg/L (≈ 381 µM)
MIC ([7]; D88): > 100 mg/L
MIC [8]; 607: > 100 mg/L
MIC [9]: 100 mg/L (≈ 381 µM)
MIC [10]: > 100 mg/L
MIC ([11]; Staphylococcus aureus): > 100 mg/L
MIC ([12]; Staphylococcus aureus): > 100 mg/L
MIC [13]: 50 mg/L (≈ 191 µM)
MIC ([14]; Streptococcus pyogenes): 100 mg/L (≈ 381 µM)
T/C (%) in MST ([16]; 0.03 mg/kg/day ip): 96%
T/C (%) in MST ([16]; 0.1 mg/kg/day ip): 104%
T/C (%) in MST ([16]; 0.3 mg/kg/day ip): 112%
antitumor activity in P388 experiment (comparison) [16]: similarly active
Average weight change ([1]; 0.1 mg/kg/day i.p.): +1.0 g
MST ([1]; 0.1 mg/kg/day i.p.): 13.0 days
Survivors Day 5 ([1]; 0.1 mg/kg/day i.p.): 6/6
Survivors Day 22 ([1]; 0.1 mg/kg/day i.p.): 0/6
Effect MST % T/C ([1]; 0.1 mg/kg/day i.p.): 108%
Average weight change ([1]; 0.3 mg/kg/day i.p.): +0.8 g
MST ([1]; 0.3 mg/kg/day i.p.): 14.5 days
Survivors Day 5 ([1]; 0.3 mg/kg/day i.p.): 6/6
Survivors Day 22 ([1]; 0.3 mg/kg/day i.p.): 0/6
Effect MST % T/C ([1]; 0.3 mg/kg/day i.p.): 121%
Average weight change ([1]; 1 mg/kg/day i.p.): +0.5 g
MST ([1]; 1 mg/kg/day i.p.): 17.0 days
Survivors Day 5 ([1]; 1 mg/kg/day i.p.): 6/6
Survivors Day 22 ([1]; 1 mg/kg/day i.p.): 0/6
Effect MST % T/C ([1]; 1 mg/kg/day i.p.): 142%
Average weight change ([1]; 3 mg/kg/day i.p.): 0.0 g
MST ([1]; 3 mg/kg/day i.p.): 17.5 days
Survivors Day 5 ([1]; 3 mg/kg/day i.p.): 6/6
Survivors Day 22 ([1]; 3 mg/kg/day i.p.): 0/6
Effect MST % T/C ([1]; 3 mg/kg/day i.p.): 146%
antitumor activity in second P388 experiment (in words) [1]: similarly active
LD50 [18]: 20 to 30 mg/kg
